These results are taken from EP3495350B1, “COMPOUND INHIBITING FORMATION OF C-MYC/MAX/DNA COMPLEX” (National Cancer Center, priority 2016, dated 2018).

pIC50: −log10 of the molar value.

One data set relates to zebrafish. As to the kind of experiment: Cardiotoxicity experiment using zebrafish (heart rate, lethality). It counts as in vivo. The following applies: n=10; for Changes in heart rate (%): mean.
For the next data set, the system named is MBT-2. Description: Cell based assay, cell viability (CellTiter-Glo), MBT-2. The conditions noted are these: 72 hours, 0 to 2 µM; read-out: cell based assay cell line 1 MBT-2 IC50. As to the method: (§1) Commercially available bladder cancer cell lines were treated with trypsin-EDTA and seeded in each well of a 96 well plate, followed by incubation for 24 hours. After incubation, candidate compounds were added to each well at a final concentration of 0 to 2 µM. The compound-treated cells were further incubated for 72 hours. Cell viability was measured using an ATP detection method (CellTiter-Glo Luminescent Cell Viability Assay, Promega).
(§2) The selectivity of the compounds of the present disclosure to cancer cells was evaluated in the same manner as described in "2. Cell based assay".
(Cellular ATP, detected with luciferase, serves as a proxy for viable cell number.)

The next data set concerns 253J. Description: Cell based assay, cell viability (CellTiter-Glo), 253J. The following applies: Homo sapiens; 72 hours, 0 to 2 µM; read-out: cell based assay cell line 3 253J IC50. How it is done:
as §1, §2

Data set [1] in a line: Cell based assay, cell viability (CellTiter-Glo), RT4 (selectivity). The following applies: human, rt4 cells; selectivity evaluation, Table 6; benign; read-out: Cytotoxicity (µM) RT4. How it is done:
Commercially available bladder cancer cell lines were treated with trypsin-EDTA and seeded in each well of a 96 well plate, followed by incubation for 24 hours. […] The compound-treated cells were further incubated for 72 hours. Cell viability was measured using an ATP detection method (CellTiter-Glo Luminescent Cell Viability Assay, Promega).
as §2

Another data set relates to UM-UC-3. Description: Cell based assay, cell viability (CellTiter-Glo), UM-UC-3. The conditions noted are these: Homo sapiens, UMUC3; 72 hours, 0 to 2 µM; read-out: cell based assay cell line 4 UM-UC-3 IC50. How it is done: as §1, §2
Another data set deals with recombinant c-Myc/Max. As to the kind of experiment: Protein assay: electrophoretic mobility shift assay (EMSA) of DNA binding of c-Myc/Max. It counts as biochemical. How it is done: Recombinant proteins were prepared as described in the following references: K. C. Jung et al., Fatty Acids, Inhibitors for the DNA Binding of c-Myc/Max Dimer, Suppress Proliferation and Induce Apoptosis of Differentiated HL-60 Human Leukemia Cell, Leukemia, 2006, 20(1), 122-7 or Kyung-Chae Jeong et al., Small-Molecule Inhibitors of c-Myc Transcriptional Factor Suppress Proliferation and Induce Apoptosis of Promyelocytic Leukemia Cell via Cell Cycle Arrest, Mol. BioSyst., 2010, 6, 1503-1509.
The inhibitory activity of each candidate compound on DNA binding of recombinant c-Myc/Max was measured using an electrophoretic mobility shift assay (EMSA). The ratio of protein-DNA complexes in each sample was evaluated by measuring band intensity. The oligonucleotides (E-box, 5'-biotin-[…]-3'-biotin) corresponding to the consensus binding site of Myc/Max were dimerized through an annealing process. The protein mixture was incubated at room temperature for 5 minutes, and a DMSO solution containing each candidate compound was added thereto. The mixture was further incubated for 5 minutes, and the biotinylated DNA was added. To achieve a state of equilibrium, the final mixture was incubated at room temperature for 10 minutes. […] Each band was visualized using HRP-conjugated streptavidin and an ECL solution, and band intensity was measured using image analysis software.

The test system of the next data set is KU19-19. As to the kind of experiment: Cell based assay, cell viability (CellTiter-Glo), KU19-19. The conditions noted are these: Homo sapiens, KU-19-19; 72 hours, 0 to 2 µM; read-out: cell based assay cell line 2 KU19-19 IC50. How it is done:
as §1, §2

A short description of data set [2]: Single toxicity test (IV and IP single dose). The conditions noted are these: 40 mg/kg. It counts as in vivo, Mouse.

By pIC50 is commonly meant the IC50 on a negative log10 scale, so that one unit is a factor of ten. The mortality is the share of the test organisms that died.

As to `COc1ccc(CCN2CCC(Nc3nc4ccccc4n3Cc3ccc(F)cc3)CC2)cc1` [Astemizole, reference compound], in the data set with zebrafish (10 µM), the “Changes in heart rate (%)” value is on record as 46.2% and the Lethality is 0/10.

For the compound `CC(=O)c1c([S+]([O-])Cc2ccccc2)nc2c(Br)ccc(Cl)c2c1O` (centres unmarked) [Compound 4, 3-acetyl-2-(benzylsulfinyl)-8-bromo-5-chloroquinolin-4(1H)-one], the negative-log IC50 (pIC50) in the data set on MBT-2 was 6.02; with 253J it was 6.00; in the data set with UM-UC-3, 5.88; at recombinant c-Myc/Max it was more than 6.00; with KU19-19, 5.98. For the same compound, in data set [1], the CC50 at 72 h is more than 10 µM. The “Changes in heart rate (%)” value in the data set on zebrafish (5 µM) is 88.5%. The Lethality with zebrafish (5 µM) is 1/10. Also, the deaths entry in data set [2] (IV and IP single-dose administration of 40 mpk) is “no deaths”. Moreover, the “General symptoms (feed intake, drinking water intake)” value in data set [2] (mouse, in vivo) is on record as “no abnormal symptoms”. Also, the Weight changes entry in data set [2] (mouse, in vivo) is recorded as “no significant weight changes”. Further, the Percentage is given as 0 (0/2) in data set [2] (mouse, in vivo, ip) and 0 (0/2) in data set [2] (mouse, in vivo, iv). In addition, the mortality came to 0% in data set [2] (mouse, in vivo, ip) and 0% in data set [2] (mouse, in vivo, iv).

Take `CC(=O)c1c([S+]([O-])Cc2ccc([N+](=O)[O-])cc2)[nH]c2c(Br)ccc(Cl)c2c1=O` (centres unmarked) [Compound 33, 3-acetyl-8-bromo-5-chloro-2-((4-nitrobenzyl)sulfinyl)quinolin-4(1H)-one]: the pIC50 was 6.05 in the data set on MBT-2, 5.86 with 253J, 5.95 with UM-UC-3 and 5.85 in the data set on KU19-19. For the same compound, in data set [1], the CC50 at 72 h was more than 10 µM. For the same compound, in the data set with zebrafish (5 µM), the “Changes in heart rate (%)” value was 97.3%. Further, the Lethality with zebrafish (5 µM) is 0/10. Besides, the “Note (heart rate inhibition)” value in the data set with zebrafish (5 µM) is on record as “No significant heart rate inhibition”.

Regarding `CC(=O)c1c(S(=O)(=O)Cc2ccccc2)nc2c(Br)ccc(Cl)c2c1O` [Compound 54, 1-(2-(benzylsulfonyl)-8-bromo-5-chloro-4-hydroxyquinolin-3-yl)ethan-1-one], the pIC50 was less than 5.70 in the data set on MBT-2; less than 5.70 with 253J; less than 5.70 in the data set on UM-UC-3; more than 6.00 on recombinant c-Myc/Max; less than 5.70 with KU19-19.

With `Cc1cc(C[S+]([O-])c2[nH]c3c(Cl)ccc(Cl)c3c(=O)c2C(=O)C2CC2)no1` (centres unmarked) [Compound 97, 5,8-dichloro-3-(cyclopropanecarbonyl)-2-(((5 - methylisoxazol-3-yl)methyl)sulfinyl)quinolin-4(1H)-one], the pIC50 was 6.09 in the data set with MBT-2, 5.92 in the data set with 253J, 5.90 in the data set with UM-UC-3 and 5.79 with KU19-19.

In the case of `CC(=O)c1c([S+]([O-])Cc2ccc(C#N)s2)[nH]c2c(Br)ccc(Cl)c2c1=O` (centres unmarked) [Compound 98, 5-(((3-acetyl-8-bromo-5-chloro-4-oxo-1,4-dihydroquinolin-2-yl)sulfinyl)methyl)thiophene-2-carbonitrile], the pIC50 in the data set on MBT-2 was 6.08; with 253J, 5.86; in the data set on UM-UC-3, 5.82; in the data set with KU19-19, 5.72.

With `CC(=O)c1c([S+]([O-])Cc2ccc(-n3cccn3)nc2)[nH]c2c(Br)ccc(Cl)c2c1=O` (centres unmarked) [Compound 99, 2-(((6-(1H-pyrazol-1-yl)pyridin-3-yl)methyl)sulfinyl)-3-acetyl-8-bromo-5-chloroquinolin-4(1H)-one], the negative logarithm of the IC50 (pIC50) with MBT-2 is 6.33; with 253J, 6.10; with UM-UC-3 it was 6.11; with KU19-19, 5.95.

Consider `CC(=O)c1c([S+]([O-])Cc2ccc(N)nc2)[nH]c2c(Br)ccc(Cl)c2c1=O` (centres unmarked) [Compound 100, 3-acetyl-2-(((6-aminopyridin-3-yl)methyl)sulfinyl)-8-bromo-5-chloroquinolin-4(1H)-one], for which the pIC50 in the data set with MBT-2, in the data set with 253J, in the data set with UM-UC-3 and in the data set with KU19-19 was less than 5.70 throughout.

With `O=C(c1c([S+]([O-])Cc2ccc(SC(F)(F)F)cc2)[nH]c2c(Br)ccc(Cl)c2c1=O)C1CC1` (centres unmarked) [Compound 101, 8-bromo-5-chloro-3-(cyclopropanecarbonyl)-2-((4-((trifluoromethyl)thio)benzyl)sulfinyl)quinolin-4(1H)-one], the negative logarithm of the IC50 (pIC50) in the data set on MBT-2 was less than 5.70; with 253J it was 5.74; in the data set on UM-UC-3, 5.71; with KU19-19, less than 5.70.

For `CC(=O)c1c([S+]([O-])Cc2ccc(C(F)(F)F)nc2C)[nH]c2c(Br)ccc(Cl)c2c1=O` (centres unmarked) [Compound 102, 3-acetyl-8-bromo-5-chloro-2-(((2-methyl-6-(trifluoromethyl)pyridin-3-yl)methyl)sulfinyl)quinolin-4(1H)-one], the pIC50 in the data set with MBT-2 is 6.11; in the data set with 253J, 6.08; with UM-UC-3, 5.97; in the data set with KU19-19, 5.80.

As for `CC(=O)c1c([S+]([O-])Cc2ccc(NS(C)(=O)=O)cc2)[nH]c2c(Br)ccc(Cl)c2c1=O` (centres unmarked) [Compound 103, N-(4-(((3-acetyl-8-bromo-5-chloro-4-oxo-1,4-dihydroquinolin-2-yl)sulfinyl)methyl)phenyl)methanesulfonamide], the negative logarithm of the IC50 (pIC50) in the data set on MBT-2, with 253J, in the data set with UM-UC-3 and in the data set on KU19-19 was less than 5.70 in each case.

In the case of `CC(=O)c1c([S+]([O-])Cc2ccc(Cl)nc2)[nH]c2c(Br)ccc(Cl)c2c1=O` (centres unmarked) [Compound 104, 3-acetyl-8-bromo-5-chloro-2-(((6-chloropyridin-3-yl)methyl)sulfinyl)quinolin-4(1H)-one], the negative-log IC50 (pIC50) in the data set with MBT-2 is 6.15; in the data set with 253J, 6.06; in the data set with UM-UC-3, 5.95; with KU19-19, 5.82.

As to `COCCNc1ccc(C[S+]([O-])c2[nH]c3c(Br)ccc(Cl)c3c(=O)c2C(C)=O)cn1` (centres unmarked) [Compound 105, 3-acetyl-8-bromo-5-chloro-2-(((6-((2-methoxyethyl)amino)pyridin-3-yl)methyl)sulfinyl)quinolin-4(1H)-one], the negative-log IC50 (pIC50) in the data set on MBT-2, in the data set on 253J, in the data set on UM-UC-3 and with KU19-19 was less than 5.70 each time.

With `CC(=O)c1c([S+]([O-])Cc2nonc2C)[nH]c2c(Br)ccc(Cl)c2c1=O` (centres unmarked) [Compound 106, 3-acetyl-8-bromo-5-chloro-2-(((4-methyl-1,2,5-oxadiazol-3-yl)methyl)sulfinyl)quinolin-4(1H)-one], the negative-log IC50 (pIC50) with MBT-2, in the data set on 253J, with UM-UC-3 and in the data set on KU19-19 was less than 5.70 throughout.

For `CC(=O)c1c([S+]([O-])Cc2cnc3[nH]ccc3c2)[nH]c2c(Br)ccc(Cl)c2c1=O` (centres unmarked) [Compound 107, 2-(((1H-pyrrolo[2,3-b]pyridin-5-yl)methyl)sulfinyl)-3-acetyl-8-bromo-5-chloroquinolin-4(1H)-one], the negative logarithm of the IC50 (pIC50) with MBT-2, with 253J, in the data set with UM-UC-3 and in the data set on KU19-19 was less than 5.70 throughout.
